{"source": "paper PMC7862507", "about": "“Adrenomedullin for steroid-resistant ulcerative colitis: a randomized, double-blind, placebo-controlled phase-2a clinical trial” (Journal of Gastroenterology, 2020)", "key": {"[1]": {"system": "patients with steroid-resistant UC", "assay": "Dose of concomitant steroid, phase-2a clinical trial", "type": "in vivo, Japanese patients", "conditions": "n = 3, mean ± SD, placebo 11.3 ± 6.4", "protocol": "After hospitalization, patients received a continuous infusion of the assigned drug for 8 h per day for a total of 14 days. After the final administration of the investigational drug, patients were subjected to safety examinations and then discharged. But, if necessary due to disease activity, continuous hospitalization was allowed. Patients were requested to make an office visit at 4 and 8 weeks. Evaluations of their Mayo scores including endoscopic examinations were done at 2 and 8 weeks, whereas evaluation of the Lichtiger index was done at 2, 4, and 8 weeks. The dose of concomitant steroid was maintained for 2 weeks after drug administration, and then, a reduction in the steroid dose was allowed depending on the disease condition. Changes to the doses of other drugs, such as aminosalicylic acid, were prohibited throughout the trial.\nAll data were collected at each institute from March 2017 to April 2019. The primary endpoint was the change in the Mayo scores at 2 weeks. Secondary endpoints included the change in the Mayo scores at 8 weeks and the rate of clinical remission at 2 and 8 weeks, defined as a Mayo score 0; the response rate of the Mayo scores at 2 and 8 weeks, defined as an improvement of a 3-point or more decrease or at least a 30% decrease from baseline; the changes in MES at 2 and 8 weeks; the changes in the Lichtiger index at 2, 4, and 8 weeks; the changes in fecal calprotectin and FIT at 2 weeks; and finally, the changes in the given dose of steroid.\nThe significant level for each test was 5%. […] All data are shown as mean ± standard deviation (SD)."}, "[2]": {"system": "patients with steroid-resistant UC", "assay": "Adverse events, safety assessment", "conditions": "for Decrease of blood pressure (cardiovascular disorders) / Flushing (cardiovascular disorders) / Gastrointestinal disorders / Head disconfort (nervous system disorders) / Palpitation (cardiovascular disorders) / Rash / Headache (nervous system disorders) / Increase of transaminase / Muscle pain, back pain / Any adverse events: patients with event (%); for Decrease of blood pressure (cardiovascular disorders) / Flushing (cardiovascular disorders) / Gastrointestinal disorders / Head disconfort (nervous system disorders) / Palpitation (cardiovascular disorders) / Rash / Severe adverse events: placebo 0; for Headache (nervous system disorders) / Serious adverse events: placebo 1 (14%); for Increase of transaminase / Muscle pain, back pain: placebo 2 (29%); for Any adverse events: placebo 4 (57%); for Severe adverse events / Serious adverse events: patients with event", "experimental": "Safety evaluations including the evaluation of adverse events (AEs) and serious adverse events (SAEs) were conducted throughout the study. Vital signs, blood and urine tests, and a 12-lead ECG were performed at specified times after administration, with monitoring of ECG being assessed from the beginning of every test drug administration until 2 h after the administration.\nAll data, except for the PK parameters, were collected using an electronic data collection system (Viedoc) and analyzed by Intellim (Tokyo, Japan), an independent CRO. […] The population included in the safety analysis were all patients who received at least 1 day of administration of the test drug. […] The significant level for each test was 5%. All analyses were performed using SAS version 9.3 (SAS Institute, Cary, NC, USA). […] All data are shown as mean ± standard deviation (SD)."}}, "data": [{"smiles": "CC[C@H](C)[C@H](NC(=O)[C@H](CCC(N)=O)NC(=O)[C@H](Cc1c[nH]cn1)NC(=O)[C@H](C)NC(=O)[C@H](CC(C)C)NC(=O)[C@H](CCCCN)NC(=O)[C@H](CCC(N)=O)NC(=O)[C@@H](NC(=O)[C@@H](NC(=O)[C@@H]1CSSC[C@H](NC(=O)CNC(=O)[C@H](Cc2ccccc2)NC(=O)[C@H](CO)NC(=O)[C@H](CCCNC(=N)N)NC(=O)[C@H](CC(C)C)NC(=O)CNC(=O)[C@H](CCC(N)=O)NC(=O)[C@H](Cc2ccccc2)NC(=O)[C@H](CC(N)=O)NC(=O)[C@H](CC(N)=O)NC(=O)[C@H](CCSC)NC(=O)[C@H](CO)NC(=O)[C@H](CCC(N)=O)NC(=O)[C@H](CCCNC(=N)N)NC(=O)[C@@H](N)Cc2ccc(O)cc2)C(=O)N[C@@H](CCCNC(=N)N)C(=O)N[C@@H](Cc2ccccc2)C(=O)NCC(=O)N[C@@H]([C@@H](C)O)C(=O)N1)[C@@H](C)O)C(C)C)C(=O)N[C@@H](Cc1ccc(O)cc1)C(=O)N[C@@H](CCC(N)=O)C(=O)N[C@@H](Cc1ccccc1)C(=O)N[C@H](C(=O)N[C@@H](CC(=O)O)C(=O)N[C@@H](CCCCN)C(=O)N[C@@H](CC(=O)O)C(=O)N[C@@H](CCCCN)C(=O)N[C@@H](CC(=O)O)C(=O)N[C@@H](CC(N)=O)C(=O)N[C@H](C(=O)N[C@@H](C)C(=O)N1CCC[C@H]1C(=O)N[C@@H](CCCNC(=N)N)C(=O)N[C@@H](CO)C(=O)N[C@@H](CCCCN)C(=O)N[C@H](C(=O)N[C@@H](CO)C(=O)N1CCC[C@H]1C(=O)N[C@@H](CCC(N)=O)C(=O)NCC(=O)N[C@@H](Cc1ccc(O)cc1)C(N)=O)[C@@H](C)CC)C(C)C)[C@@H](C)O", "note": "[Adrenomedullin]", "values": [{"measurement": "dose of steroid at 8 weeks", "setting": "[1]; AM 5 ng/kg/min group", "value": "5.0 ± 8.7", "unit": "mg"}, {"measurement": "dose of steroid at 8 weeks", "setting": "[1]; AM 10 ng/kg/min group", "value": "10.0 ± 10.0", "unit": "mg"}, {"measurement": "dose of steroid at 8 weeks", "setting": "[1]; AM 15 ng/kg/min group", "value": "16.7 ± 12.6", "unit": "mg"}, {"measurement": "Decrease of blood pressure (cardiovascular disorders)", "setting": "[2]; AM 5 ng/kg/min, n = 5", "value": 0}, {"measurement": "Flushing (cardiovascular disorders)", "setting": "[2]; AM 5 ng/kg/min, n = 5", "value": 0}, {"measurement": "Gastrointestinal disorders", "setting": "[2]; AM 5 ng/kg/min, n = 5", "value": "2 (40%)"}, {"measurement": "Head disconfort (nervous system disorders)", "setting": "[2]; AM 5 ng/kg/min, n = 5", "value": 0}, {"measurement": "Palpitation (cardiovascular disorders)", "setting": "[2]; AM 5 ng/kg/min, n = 5", "value": 0}, {"measurement": "Rash", "setting": "[2]; AM 5 ng/kg/min, n = 5", "value": 0}, {"measurement": "Headache (nervous system disorders)", "setting": "[2]; AM 5 ng/kg/min, n = 5", "value": "3 (60%)"}, {"measurement": "Increase of transaminase", "setting": "[2]; AM 5 ng/kg/min, n = 5", "value": 0}, {"measurement": "Muscle pain, back pain", "setting": "[2]; AM 5 ng/kg/min, n = 5", "value": 0}, {"measurement": "Any adverse events", "setting": "[2]; AM 5 ng/kg/min, n = 5, n = 7", "value": "4 (80%)"}, {"measurement": "Decrease of blood pressure (cardiovascular disorders)", "setting": "[2]; AM 10 ng/kg/min, n = 7", "value": "1 (14%)"}, {"measurement": "Flushing (cardiovascular disorders)", "setting": "[2]; AM 10 ng/kg/min, n = 7", "value": 0}, {"measurement": "Gastrointestinal disorders", "setting": "[2]; AM 10 ng/kg/min, n = 7", "value": 0}, {"measurement": "Head disconfort (nervous system disorders)", "setting": "[2]; AM 10 ng/kg/min, n = 7", "value": "1 (14%)"}, {"measurement": "Palpitation (cardiovascular disorders)", "setting": "[2]; AM 10 ng/kg/min, n = 7", "value": 0}, {"measurement": "Rash", "setting": "[2]; AM 10 ng/kg/min, n = 7", "value": 0}, {"measurement": "Headache (nervous system disorders)", "setting": "[2]; AM 10 ng/kg/min, n = 7", "value": "4 (57%)"}, {"measurement": "Increase of transaminase", "setting": "[2]; AM 10 ng/kg/min, n = 7", "value": 0}, {"measurement": "Muscle pain, back pain", "setting": "[2]; AM 10 ng/kg/min, n = 7", "value": 0}, {"measurement": "Any adverse events", "setting": "[2]; AM 10 ng/kg/min, n = 7", "value": "6 (86%)"}, {"measurement": "Decrease of blood pressure (cardiovascular disorders)", "setting": "[2]; AM 15 ng/kg/min, n = 7", "value": "1 (14%)"}, {"measurement": "Flushing (cardiovascular disorders)", "setting": "[2]; AM 15 ng/kg/min, n = 7", "value": "2 (29%)"}, {"measurement": "Gastrointestinal disorders", "setting": "[2]; AM 15 ng/kg/min, n = 7", "value": 0}, {"measurement": "Head disconfort (nervous system disorders)", "setting": "[2]; AM 15 ng/kg/min, n = 7", "value": "2 (29%)"}, {"measurement": "Palpitation (cardiovascular disorders)", "setting": "[2]; AM 15 ng/kg/min, n = 7", "value": "1 (14%)"}, {"measurement": "Rash", "setting": "[2]; AM 15 ng/kg/min, n = 7", "value": "1 (14%)"}, {"measurement": "Headache (nervous system disorders)", "setting": "[2]; AM 15 ng/kg/min, n = 7", "value": "4 (57%)"}, {"measurement": "Increase of transaminase", "setting": "[2]; AM 15 ng/kg/min, n = 7", "value": "1 (14%)"}, {"measurement": "Muscle pain, back pain", "setting": "[2]; AM 15 ng/kg/min, n = 7", "value": 0}, {"measurement": "Any adverse events", "setting": "[2]; AM 15 ng/kg/min, n = 7", "value": "6 (86%)"}, {"measurement": "Severe adverse events", "setting": "[2]; AM 5 ng/kg/min, n = 5", "value": 0}, {"measurement": "Serious adverse events", "setting": "[2]; AM 5 ng/kg/min, n = 5", "value": 0}, {"measurement": "Severe adverse events", "setting": "[2]; AM 10 ng/kg/min, n = 7", "value": 0}, {"measurement": "Serious adverse events", "setting": "[2]; AM 10 ng/kg/min, n = 7", "value": 0}, {"measurement": "Severe adverse events", "setting": "[2]; AM 15 ng/kg/min, n = 7", "value": 0}, {"measurement": "Serious adverse events", "setting": "[2]; AM 15 ng/kg/min, n = 7", "value": 0}]}]}
